This is an account of results in ChEMBL document CHEMBL3507680, “University of Dundee, Gates Library screen for HepG2 cell viability”.

The series is described as follows: Human HepG2 cell viability assay in 384 well format. The settings on record: HepG2 cells, read-out: Inhibition. The class given is toxicity, cell-based. Details: dose 125 nL, time 70.5 hour; concentration not given beside the values.

For the compound `CCc1nnc2n1CCN(C(=O)c1nc(-c3ccco3)sc1C)C2`, the cytotoxicity at 70.5 h is -6%.
The same measure for `c1ncn(CC2CCCN(Cc3nc(-c4ccoc4)no3)C2)n1` (stereo not drawn): -10.5%.
For `Cc1nn(C)c(C)c1C1CCCN1Cc1ccc(C(N)=O)cc1` (stereo not drawn) the value was -10.3%.
For `Cc1cnn(CCNCC(O)COc2ccc(F)cc2)c1` (stereo not drawn) the value was -10.4%; for `CCc1noc(CN2CCN(C(=O)COC)CC2)n1`, 6.94%.
For `Cc1cnn(CC2CCCN2C(=O)CN(C)C2CC2)c1` (stereo not drawn), the cytotoxicity at 70.5 h was -11.8%.
The same measure for `CCN(CC)CC(=O)N1CCCC1Cn1cccn1` (stereo not drawn): -4.89%; for `Cc1nn(C)c(C)c1C1CCCN1Cc1cccc(OCC(N)=O)c1` (stereo not drawn): -7.47%.
The same measure for `COc1c(C2CCCN2C(=O)c2c(C)noc2C(C)C)c(C)nn1C` (stereo not drawn): -4.7%.
The same measure for `Cn1ccnc1CC1CCCN(Cc2noc(C3CC3)n2)C1` (stereo not drawn): -9.18%; for `CCOC(=O)c1ccc(S(=O)(=O)NCc2cccnc2N(C)C)cc1`: 34.2%; for `COc1c(C)cnc(CN2CCCC(Cn3nc(C)nc3C)C2)c1C` (stereo not drawn): -3.59%.
On to `c1ncn(CC2CN(Cc3ccc4c(c3)OCCO4)CCO2)n1` (stereo not drawn), for which the cytotoxicity at 70.5 h was -0.441%.
The same measure for `CCN(Cc1ccccc1)C(=O)CN1CCOC(Cn2cncn2)C1` (stereo not drawn): 5.38%.
For `CS(=O)(=O)NCCCN1CCCC1c1ccsc1` (stereo not drawn) the value was -9.71%.
For `Cc1cnn(CC(=O)N2CCCN(c3nc(C)cs3)CC2)c1` the value was 0.581%; for `O=C(CN1CCCCC1Cn1cncn1)NCCc1ccsc1` (stereo not drawn), 9.35%; for `CCC(C)NC(=O)CS(=O)(=O)Cc1cc(Cl)c2c(c1)OCCCO2` (stereo not drawn), -5.29%.
Consider `NC(=O)CS(=O)(=O)Cc1cc(Cl)c2c(c1)OCCCO2`, for which the cytotoxicity at 70.5 h is 13.8%.
For the compound `COc1ccc(S(=O)(=O)NCc2cccnc2N(C)C)cc1`, the cytotoxicity at 70.5 h was -5%.
For `CNC(=O)CS(=O)(=O)Cc1cc(Cl)c2c(c1)OCCO2` the value was -4.61%; for `CN(Cc1ccsc1)C(=O)Nc1ccc(N2CCCC2)nc1`, 0.563%.
In the case of `O=C(CN1CCC(c2ccnn2CCO)CC1)NCc1ccco1`, the cytotoxicity at 70.5 h turned out to be 11.2%.
The same measure for `CNC(=O)c1ccc(S(=O)(=O)NCc2cccnc2N(C)C)cc1`: -6.39%.
For `Cc1csc(N2CCN(C(=O)CCn3cccn3)CC2)n1` the value was 3.65%; for `Cc1cnn(CCC(=O)N2CCN(c3nccs3)CC2)c1`, 17.7%; for `CN(Cc1ccsc1)C(=O)Nc1ccc(N(C)C)nc1`, -2.83%.
The same measure for `CCOc1ccnc(N2CCN(C(=O)c3c(CC)noc3C)CC2)n1`: -7.39%; for `CCOc1ccnc(N2CCN(C(=O)c3cn[nH]c3C)CC2)n1`: 13.7%; for `CC(C)c1nc(CN2CCCC2c2cnn(C)c2)cs1` (stereo not drawn): -2.88%.
Consider `CC(=O)N(C)c1nc(CN2CCCC2c2cnn(C)c2)cs1` (stereo not drawn), for which the cytotoxicity at 70.5 h amounted to 1%.
The same measure for `O=C(NCCOc1ccc2c(c1)OCO2)C1CC(=O)N(CC2CC2)C1` (stereo not drawn): 1.74%; for `CNS(=O)(=O)c1ccc(C(=O)N2CCCC2Cc2ccccc2)o1` (stereo not drawn): 1.08%.
The same measure for `O=C(NCCOc1cccc(Cl)c1)C1CC(=O)N(CC2CC2)C1` (stereo not drawn): 40.6%; for `CC(NC(=O)NCC1(N2CCCCC2)CCCCC1)c1nncn1C` (stereo not drawn): -20.6%.
The same measure for `CN(C)S(=O)(=O)c1ccc(CN2CCCC2c2ccccc2)o1` (stereo not drawn): 32.6%; for `CCc1ccc(S(=O)(=O)Nc2cc(OC)c(OC)cc2C(=O)O)s1`: 4.71%; for `CC(NC(=O)NCC1(c2ccccc2)CCC1)c1nncn1C` (stereo not drawn): -16.7%.
With `O=C(COC(=O)Cc1cccs1)NCc1cccc(NC(=O)C2CC2)c1`, the cytotoxicity at 70.5 h is -10.5%.
Turning to `CCn1cc(NC(=O)C2CCN(CCOC(C)C)CC2)cn1`, the cytotoxicity at 70.5 h was -1.36%.
The same measure for `CNS(=O)(=O)c1ccc(C(=O)N2CCCC2c2ccccc2)o1` (stereo not drawn): -14.1%; for `O=C(c1csc(-c2cccs2)n1)N1CCCC1Cn1cccn1` (stereo not drawn): -18.2%.
For `Cc1cc(NC(=O)CN(C)C2CCCN(c3cccnn3)C2)n(C)n1` (stereo not drawn), the cytotoxicity at 70.5 h is -4.81%.
For `c1ncn(CC2CN(Cc3csc(C4CCCC4)n3)CCO2)n1` (stereo not drawn) the value was -7.39%; for `c1csc(-c2nc(CN3CCOC(Cn4cncn4)C3)cs2)c1` (stereo not drawn), -26.8%.
The same measure for `COCCNC(=O)NCc1ccc(OC(C)C)c(F)c1`: -10.4%; for `Cc1cn2c(n1)CCC(NC(=O)CCn1ccnn1)C2` (stereo not drawn): -8.67%; for `CCOc1cc(C(=O)N2CCCC(c3noc(C)n3)C2)ccn1` (stereo not drawn): -12.6%.
The same measure for `CN(C)CC1CN(c2ccc(C#N)cn2)CCO1` (stereo not drawn): -10.1%; for `CCN1CCOC(CNCc2ccccn2)C1` (stereo not drawn): -7.88%.
On to `CN(C)S(=O)(=O)c1ccc(CN2CCCC2c2ccc[nH]2)o1` (stereo not drawn), for which the cytotoxicity at 70.5 h was -5.46%.
The same measure for `CCCc1n[nH]c(C2CN(C(=O)C3=COCCC3)CCO2)n1` (stereo not drawn): -16.3%; for `CCc1nc2n(n1)CC(NCc1ccnc(-c3ccccc3)n1)CC2` (stereo not drawn): -10%.
For `Cc1cccc(OCCNC(=O)CN2CCCC2Cn2cccn2)c1` (stereo not drawn) the value was -15.8%; for `CNS(=O)(=O)c1ccc(C(=O)N2CCCC2c2cnn(C)c2)o1` (stereo not drawn), 23%.
For `CNC(=O)CCCNCc1c(C(C)C)nn(C)c1N(C)C` the value was 14.4%; for `CC(C)c1nc(C2CCCN2C(=O)c2ccc(N(C)C)nn2)no1` (stereo not drawn), 7.67%; for `CN(CCc1ccccn1)S(=O)(=O)N1CCCC1c1ccco1` (stereo not drawn), -10.8%.
Take `COc1cccc(CCNC(=O)CN2CCN(C)CC2C)c1` (stereo not drawn): the cytotoxicity at 70.5 h is -17.1%.
For `CC(NC(=O)NCCCO)c1ccc2c(c1)OCCO2` (stereo not drawn) the value was -10.1%; for `CN(Cc1ccsc1)C(=O)c1cc2c([nH]c1=O)CCCC2=O`, -12.8%; for `CN1CCC(NC(=O)NCCNc2ccccn2)CC1`, -13.1%.
As to `CC(N(C)Cc1nc2c(cnn2C)c(=O)[nH]1)C(C)(C)C` (stereo not drawn), the cytotoxicity at 70.5 h was found to be 21%.
The same measure for `COCCCNC(=O)CN(C)C(=O)c1cc(C)sc1C`: -14%.
The same measure for `CN(CC(=O)N1CCN(c2ccccc2F)CC1)c1cnccn1`: -18.2%; for `CS(=O)(=O)NC1CCN(C(=O)NCCc2ccccc2F)CC1`: -5.64%; for `COc1ccccc1OCCN1CCC(N2CCNC2=O)CC1`: 19.7%.
For `Cn1ccnc1CN1CCN(Cc2cc(C#N)ccc2F)CC1`, the cytotoxicity at 70.5 h is -11.4%.
For `COc1cccc(OCCNC(=O)CN2CCN(C)CC2C)c1` (stereo not drawn) the value was -13.4%; for `Cc1cnn(CCNCc2ccccc2C#N)c1`, 13.2%; for `CC(NC(N)=O)C(=O)N(C)CCCc1cc(-c2ccccc2)no1` (stereo not drawn), -21.7%.
In the case of `CC(C)c1nc(C2CCCN2C(=O)c2nccnc2N)no1` (stereo not drawn), the cytotoxicity at 70.5 h was -7.76%.
The same measure for `CN(C)C(CNC(=O)c1cc2c([nH]c1=O)CCCC2=O)c1ccsc1` (stereo not drawn): -2.41%; for `CCOc1ncccc1NC(=O)N1CCCCCC1`: -13.8%.
The same measure for `CC(c1nc(C2CC2)no1)N1CCN(CCOCC(F)(F)F)CC1` (stereo not drawn): -8.3%; for `Cc1csc(N2CCN(CC(=O)Nc3nncs3)CC2C)n1` (stereo not drawn): -10%.
For `O=C(c1cnccn1)N1CCN(Cc2csc(-c3ccccc3)n2)CC1` the value was 10.5%.
As to `CN(CCn1cccn1)S(=O)(=O)N1CCCC1c1ccco1` (stereo not drawn), the cytotoxicity at 70.5 h is -17%.
Take `CCOc1ncccc1NC(=O)N1CCc2ccccc2C1`: the cytotoxicity at 70.5 h was -12%.
On to `Cc1noc(C)c1C(=O)NCC(C)N(C)C` (stereo not drawn), for which the cytotoxicity at 70.5 h stood at 4.18%.
The same measure for `CC(=O)N1CCC(CN2CCN(Cc3nccn3C)C(C)C2)CC1` (stereo not drawn): 2.21%; for `COc1ccc(C)cc1CN1CCCC1c1noc(C2CC2)n1` (stereo not drawn): -1.93%; for `O=C(CCn1cccn1)N1CCN(CC(F)F)CC1`: -1.77%.
The same measure for `CC(=O)N(Cc1ncc(C(C)C)o1)C1CCN(Cc2ncc[nH]2)C1` (stereo not drawn): 0.135%.
The same measure for `CCC(=O)N1CCN(C(=O)CCn2cccn2)CC1`: -7.9%; for `c1ccc2sc(CN3CCCC3c3noc(C4CC4)n3)nc2c1` (stereo not drawn): 4.52%; for `c1ccc2c(N3CCCC3Cn3cccn3)ncnc2c1` (stereo not drawn): 4.1%.
Consider `Cc1ccsc1C(=O)NCCCn1nc2ccccn2c1=O`, for which the cytotoxicity at 70.5 h was -4.38%.
`CNC(=O)C1CCN(C(=O)c2ccn(-c3ccc(F)cc3)n2)CC1`: the cytotoxicity at 70.5 h is -15%.
The same measure for `CC(=O)NCCNC(=O)c1sc(-c2ccc(C)cc2C)nc1C`: 0.801%; for `Cc1nc(-c2ccc(Cl)s2)sc1C(=O)NCCS(N)(=O)=O`: -13.2%; for `CN(C)Cc1nc(C(C)(C)NC(=O)C2CC(=O)N(CC3CC3)C2)no1` (stereo not drawn): 19.5%.
The same measure for `CCCc1nc(C(C)(C)NC(=O)C2CC(=O)N(CC3CC3)C2)no1` (stereo not drawn): -6.06%.
For `CN1CCCN(C(=O)NCc2csc(Br)c2)CC1` the value was -6.63%.
For `CN(C)C1CCN(C(=O)c2ccc(Cn3ccccc3=O)o2)CC1`, the cytotoxicity at 70.5 h was found to be 1.64%.
In the case of `COc1c(CNC2CCCc3ccccc32)c(C(C)C)nn1C` (stereo not drawn), the cytotoxicity at 70.5 h turned out to be 9.34%.
For `Cc1ncc2c(n1)CN(Cc1nnc(-c3occc3C)o1)CC2` the value was 4.24%; for `Cc1ccc(-c2nnc(CN3CCc4cnc(C)nc4C3)o2)cc1`, 3.5%; for `CC1CN(CC(=O)Nc2nncs2)CCN1Cc1nccn1C` (stereo not drawn), -4.59%.
For `CCOc1cc(C)nc(N2CCN(C(=O)c3ccnn3C)CC2)n1` the value was -3.99%.
For `c1cnn(CC2CCCN2c2ncnc3sccc23)c1` (stereo not drawn) the value was 31.2%; for `CC(C)c1nn(C)c(N(C)C)c1CNCCC(=O)N(C)C`, -2.45%.
Consider `CC(C)c1nn(C)c(Cl)c1CNC1CCOc2ccccc21` (stereo not drawn), for which the cytotoxicity at 70.5 h is -2.92%.
